Experimental data taken from patent US20260272895A1, “METHODS AND KITS FOR DELIVERY OF COMPOUNDS INTO CELLS” (Yale University, priority 2023, published 2026).

Columns and labels:
SLCO1A2 = molecular target: T1, SLCO1A2 (Homo sapiens, UniProt P46721); test: Compound uptake in HEK293 cells transfected with SLCO1A2; assay type: cell-based; set-up: FLAG; details: concentration not given
T1 sequence (P46721 1-670): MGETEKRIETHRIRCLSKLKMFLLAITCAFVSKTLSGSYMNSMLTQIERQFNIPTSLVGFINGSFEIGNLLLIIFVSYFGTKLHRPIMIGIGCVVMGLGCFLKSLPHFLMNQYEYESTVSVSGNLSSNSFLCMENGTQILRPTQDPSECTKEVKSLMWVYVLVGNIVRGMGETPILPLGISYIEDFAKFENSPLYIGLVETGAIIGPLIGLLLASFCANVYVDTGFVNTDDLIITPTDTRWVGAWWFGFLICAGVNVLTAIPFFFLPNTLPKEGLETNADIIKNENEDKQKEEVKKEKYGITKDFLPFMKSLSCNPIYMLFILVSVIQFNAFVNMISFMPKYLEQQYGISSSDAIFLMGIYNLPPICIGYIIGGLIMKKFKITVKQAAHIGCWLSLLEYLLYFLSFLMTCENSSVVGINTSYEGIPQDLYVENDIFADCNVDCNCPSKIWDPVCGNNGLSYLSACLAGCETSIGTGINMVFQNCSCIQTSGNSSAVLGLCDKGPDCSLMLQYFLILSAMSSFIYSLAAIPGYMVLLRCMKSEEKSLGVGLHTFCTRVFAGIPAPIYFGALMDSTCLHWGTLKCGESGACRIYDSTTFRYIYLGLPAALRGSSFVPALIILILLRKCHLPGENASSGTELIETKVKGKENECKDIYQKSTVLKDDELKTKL
Protocol: (§1) HEK293 cells are cultured and seeded at ~60% confluency in 24-well plates and are transiently transfected with 250 ng of a candidate transporter and 1 μL transfection reagent (JetPRIME). After 2 days, cells are washed and novel fluorescent probes at different concentrations are added to the transport medium and incubated at 37° C., for at least 30 minutes. To terminate the transport, cells are washed with PBS and fixed with 4% paraformaldehyde. The colocalization of probe uptake and cells expressing the transporters is investigated by immunostaining the transporter which has a fused FLAG tag, using anti-FLAG 488. Before confocal imaging, nuclei are labeled with Hoechst 33342 and cells are mounted and imaged on a Leica SP8 confocal microscope.
(§2) For in vitro experiments, HEK293 cells were cultured and seeded in 24-well plates, reaching approximately 60% confluency. For transient transfection, 250 ng of a candidate transporter plasmid and 1 μL of transfection reagent (JetPRIME) were added to the cells. After a 2-day incubation period, the cells were washed, and novel fluorescent probes were introduced into the transport medium at various concentrations. The cells were then incubated at 37° C., for a minimum of 30 minutes to allow for uptake. To stop the transport process, the cells were washed with PBS and fixed using 4% paraformaldehyde. Immunostaining of the transporter, which was fused with a FLAG tag, was performed using an anti-FLAG 488 antibody. Before confocal imaging, the cell nuclei were labeled with Hoechst 33342. Finally, the cells were mounted and imaged using a Leica SP8 confocal microscope.

Slco1a4 = molecular target: T2, Slco1a4 (Mus musculus, UniProt Q9EP96); test: Compound uptake in HEK293 cells transfected with Slco1a4; assay type: cell-based; set-up: FLAG; expressed in transfected cells; details: concentration not given
T2 sequence (Q9EP96 1-670): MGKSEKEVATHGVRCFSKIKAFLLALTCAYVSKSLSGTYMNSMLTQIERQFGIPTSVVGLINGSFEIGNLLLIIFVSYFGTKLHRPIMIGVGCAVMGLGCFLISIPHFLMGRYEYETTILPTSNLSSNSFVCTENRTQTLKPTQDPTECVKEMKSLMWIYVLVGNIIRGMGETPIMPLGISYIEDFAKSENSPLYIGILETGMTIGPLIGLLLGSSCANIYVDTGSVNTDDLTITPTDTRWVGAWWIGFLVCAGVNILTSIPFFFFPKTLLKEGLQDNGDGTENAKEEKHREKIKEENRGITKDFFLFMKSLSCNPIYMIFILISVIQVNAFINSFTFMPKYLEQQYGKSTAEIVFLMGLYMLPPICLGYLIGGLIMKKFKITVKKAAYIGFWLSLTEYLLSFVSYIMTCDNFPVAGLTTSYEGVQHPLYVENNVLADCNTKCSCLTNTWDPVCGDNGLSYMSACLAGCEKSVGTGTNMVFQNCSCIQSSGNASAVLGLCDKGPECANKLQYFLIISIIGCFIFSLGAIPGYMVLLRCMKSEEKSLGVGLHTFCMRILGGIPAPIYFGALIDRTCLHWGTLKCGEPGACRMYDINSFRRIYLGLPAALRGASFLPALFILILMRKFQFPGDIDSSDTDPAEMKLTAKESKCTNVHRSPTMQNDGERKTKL
Protocol: as §1, §2

uptake in SLCO1A2 transfected HEK293 cells (SLCO1A2): is taken up
uptake in Slco1a4 transfected HEK293 cells (Slco1a4): is taken up
Compound: CCN(CC)c1ccc2c(-c3ccc(S(=O)(=O)NCCNC(=O)c4ccc(Nc5nc(N(C)[C@H]6CN(C(=O)CC#N)CC[C@H]6C)c6cc[nH]c6n5)cc4)cc3S(=O)(=O)[O-])c3ccc(=[N+](CC)CC)cc-3oc2c1 [Compound 53, 5-(N-(2-(4-((4-(((3R,4R)-1-(2-cyanoacetyl)-4-methylpiperidin-3-yl)(methyl)amino)-7H-pyrrolo[2,3-d]pyrimidin-2-yl)amino)benzamido)ethyl)sulfamoyl)-2-(6-(diethylamino)-3-(diethyliminio)-3H-xanthen-9-yl)benzenesulfonate]
